Laboratory results: article PMC6526958 (Journal of medicinal chemistry, 2019)
Entries after “also recorded” stand apart in the source; their conditions may differ.

What was measured:
[1] = target: T1, recombinant soluble rat CD73 (Rattus norvegicus, UniProt P21588); assay: radiometric CD73 assay with [2,8-3H]AMP, recombinant soluble rat CD73; format: biochemical; details: for fold less active than AOPCP: rat CD73 Ki relative to AOPCP
T1 sequence (P21588 29-551 limits assumed): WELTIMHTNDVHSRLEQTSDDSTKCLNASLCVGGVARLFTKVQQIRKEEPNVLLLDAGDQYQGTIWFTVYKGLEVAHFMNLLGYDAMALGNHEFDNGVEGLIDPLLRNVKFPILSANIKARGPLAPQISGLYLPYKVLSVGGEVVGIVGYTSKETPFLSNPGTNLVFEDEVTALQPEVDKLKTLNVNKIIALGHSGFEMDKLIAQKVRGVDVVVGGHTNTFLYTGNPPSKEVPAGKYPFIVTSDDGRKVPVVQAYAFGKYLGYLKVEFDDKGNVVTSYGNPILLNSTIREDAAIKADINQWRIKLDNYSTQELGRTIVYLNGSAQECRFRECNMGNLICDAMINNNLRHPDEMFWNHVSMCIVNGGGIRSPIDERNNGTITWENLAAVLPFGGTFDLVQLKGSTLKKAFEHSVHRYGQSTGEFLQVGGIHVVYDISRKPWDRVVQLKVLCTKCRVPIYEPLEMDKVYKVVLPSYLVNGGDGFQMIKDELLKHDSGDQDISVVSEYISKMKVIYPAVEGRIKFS

CD73 = CD73 enzyme inhibition assay, control for the triethylammonium salt form; format: biochemical; details: 500 µM
human P2Y6 receptor = human P2Y6 receptor (Homo sapiens, UniProt Q15077); format: cell-based; details: 9h up to 3.0 µM
human P2Y6 receptor, sequence (Q15077 whole entry): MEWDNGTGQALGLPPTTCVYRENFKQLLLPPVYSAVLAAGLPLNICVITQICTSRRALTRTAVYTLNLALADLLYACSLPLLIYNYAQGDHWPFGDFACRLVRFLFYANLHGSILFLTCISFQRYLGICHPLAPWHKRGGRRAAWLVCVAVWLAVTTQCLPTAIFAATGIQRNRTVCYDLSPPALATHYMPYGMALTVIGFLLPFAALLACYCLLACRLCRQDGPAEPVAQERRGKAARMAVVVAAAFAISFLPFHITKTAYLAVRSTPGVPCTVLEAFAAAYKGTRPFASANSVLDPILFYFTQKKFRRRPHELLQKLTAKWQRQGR

human P2Y14 receptor = target: T2, human P2Y14 receptor (Homo sapiens, UniProt Q15391); assay: fluorescent antagonist binding competition; details: 9h up to 3.0 µM
T2 sequence (Q15391 1-338): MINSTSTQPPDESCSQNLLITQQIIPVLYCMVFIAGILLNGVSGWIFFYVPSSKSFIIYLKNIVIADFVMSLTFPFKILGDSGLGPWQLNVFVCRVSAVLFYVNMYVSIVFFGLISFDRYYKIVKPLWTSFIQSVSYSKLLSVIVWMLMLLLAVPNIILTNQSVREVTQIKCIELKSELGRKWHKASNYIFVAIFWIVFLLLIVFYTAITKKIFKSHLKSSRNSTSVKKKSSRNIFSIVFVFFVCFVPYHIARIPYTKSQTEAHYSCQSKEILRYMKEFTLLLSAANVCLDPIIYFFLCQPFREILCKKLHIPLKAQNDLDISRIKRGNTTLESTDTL

eN/CD73 in human tonsils = target: T3, eN/CD73 in human tonsils (Homo sapiens, UniProt P21589); assay: in situ ecto-5′-nucleotidase; format: biochemical; details: human tonsil cryosections
T3 sequence (P21589 27-574): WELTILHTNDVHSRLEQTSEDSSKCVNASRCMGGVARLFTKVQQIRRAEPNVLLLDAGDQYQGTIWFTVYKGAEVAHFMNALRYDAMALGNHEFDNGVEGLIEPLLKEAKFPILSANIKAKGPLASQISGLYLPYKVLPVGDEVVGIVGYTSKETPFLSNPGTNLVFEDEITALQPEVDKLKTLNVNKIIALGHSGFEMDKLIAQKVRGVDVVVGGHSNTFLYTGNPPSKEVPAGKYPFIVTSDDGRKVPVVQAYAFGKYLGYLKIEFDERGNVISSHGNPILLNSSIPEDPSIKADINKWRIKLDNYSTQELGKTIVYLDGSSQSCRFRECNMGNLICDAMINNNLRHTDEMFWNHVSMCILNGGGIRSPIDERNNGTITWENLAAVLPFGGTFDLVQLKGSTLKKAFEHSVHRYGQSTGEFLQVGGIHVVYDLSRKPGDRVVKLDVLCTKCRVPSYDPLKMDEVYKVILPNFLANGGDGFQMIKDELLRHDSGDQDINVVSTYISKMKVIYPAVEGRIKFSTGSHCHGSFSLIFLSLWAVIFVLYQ

[2] = test system: recombinant soluble human CD73; assay: radiometric CD73 assay with [2,8-3H]AMP, recombinant soluble human CD73; format: biochemical; details: human versus rat CD73
[3] = stability in aqueous solution; format: physicochemical; details: room temperature

CCOP(=O)(O)OP(=O)(O)OC[C@H]1O[C@@H](n2ccc(=O)[nH]c2=S)[C@H](O)[C@@H]1O [compound 12]
CD73 inhibitory activity (in words) ([1]; rat CD73): inactive

O=c1cc(O)ccn1[C@@H]1O[C@H](COP(=O)(O)CP(=O)(O)O)[C@@H](O)[C@H]1O [compound 10, 3-Deazauridine-5′-O-[(phosphonomethyl)phosphonic acid]]
CD73 inhibitory activity (in words) ([1]; rat CD73): inactive

CCN(CC)CC.Cl [triethylammonium chloride]
reduction of CD73 enzymatic activity (CD73): no reduction of enzymatic activity was detected

Cn1c(=O)n([C@@H]2O[C@H](COP(=O)(O)CP(=O)(O)O)[C@@H](O)[C@H]2O)cc/c1=N/OCc1ccccc1 [9h, N^4-[O-(4-Benzyloxy)]-3-methyl-cytidine-5′-O-[(phosphonomethyl)phosphonic acid]]
potency at P2Y6 receptor (in words) (human P2Y6 receptor): completely inactive
potency at P2Y14 receptor (in words) (human P2Y14 receptor): completely inactive
inhibition of CD73 catalytic (AMPase) activity in situ (eN/CD73 in human tonsils; 1, 10 and 100 nM, 100 µM AMP): inhibited catalytic activity of CD73 in a concentration-dependent manner, in situ more potently than AOPCP
reversibility of CD73 inhibition (eN/CD73 in human tonsils): highly reversible CD73 inhibitor

CO[C@@H]1[C@H](O)[C@@H](COP(=O)(O)CP(=O)(O)O)O[C@H]1n1cc(C)c(=O)[nH]c1=O [4h, 2′-O-Methyl-5-methyluridine-5′-O-[(phosphonomethyl)phosphonic acid]]
CD73 inhibitory activity (in words) ([1]; rat CD73): inactive

Nc1ccn([C@@H]2O[C@H](COP(=O)(O)CP(=O)(O)O)[C@@H](O)[C@H]2O)c(=O)n1 [7a, Cytidine-5′-O-[(phosphonomethyl)phosphonic acid]]
fold less active than AOPCP [1]: 5 fold

O=c1[nH]c(=O)n([C@@H]2O[C@H](COP(=O)(O)CP(=O)(O)O)[C@@H](O)[C@H]2O)cc1F [4l, 5-Fluorouridine-5′-O-[(phosphonomethyl)phosphonic acid]]
fold more potent at human CD73 as compared to the rat enzyme [2]: 2 to 3 fold

O=c1[nH]/c(=N/OCc2ccccc2)c(F)cn1[C@@H]1O[C@H](COP(=O)(O)CP(=O)(O)O)[C@@H](O)[C@H]1O [9g, N^4-[O-(4-Benzyloxy)]-5-fluoro-cytidine-5′-O-[(phosphonomethyl)phosphonic acid]]
fold more potent at human CD73 as compared to the rat enzyme [2]: 5 fold

Nc1ncnc2c1ccn2[C@@H]1O[C@H](COP(=O)(O)CP(=O)(O)O)[C@@H](O)[C@H]1O [2g, 7-Deazaadenosine-5′-O-[(phosphonomethyl)phosphonic acid]]
fold higher CD73 inhibitory activity compared to AOPCP ([1]; rat CD73): 2 fold

Nc1ncnc2c1ncn2[C@@H]1O[C@H](COP(=O)(O)O)[C@@H](O)[C@H]1O [AMP, adenosine 5′-monophosphate]
Km ([1]; read-out: Km, rat CD73, substrate AMP): 53 ± 4.1 µM

O=c1ccn([C@@H]2O[C@H](COP(=O)(O)CP(=O)(O)O)[C@@H](O)[C@H]2O)c(=S)[nH]1 [4y, 2-Thiouridine-5′-O-[(phosphonomethyl)phosphonic acid]]
CD73 inhibitory activity (in words) ([1]; rat CD73): not tolerated

CCCn1c(=O)ccn([C@@H]2O[C@H](COP(=O)(O)CP(=O)(O)O)[C@@H](O)[C@H]2O)c1=O [4d, 3-Propyluridine-5′-O-[(phosphonomethyl)phosphonic acid]]
CD73 inhibitory activity (in words) ([1]; rat CD73): inactive

O=c1ccn([C@@H]2O[C@H](COP(=O)(O)CP(=O)(O)O)[C@@H](O)[C@H]2O)c(=O)n1Cc1ccccc1 [4e, 3-Benzyluridine-5′-O-[(phosphonomethyl)phosphonic acid]]
CD73 inhibitory activity (in words) ([1]; rat CD73): inactive

O=c1ccn([C@@]23C[C@H]2[C@H](COP(=O)(O)CP(=O)(O)O)[C@@H](O)[C@H]3O)c(=O)[nH]1 [compound 11, (S)-Methanocarbauridine-5′-O-[(phosphonomethyl)phosphonic acid]]
CD73 inhibitory activity (in words) ([1]; rat CD73): inactive

Cc1cn([C@@H]2O[C@H](COP(=O)(O)CCP(=O)(O)O)[C@@H](O)[C@H]2O)c(=O)[nH]c1=O [4x, 5-Methyluridine-5′-O-[(phosphonoethyl)phosphonic acid]]
CD73 inhibitory activity (in words) ([1]; rat CD73): complete loss of CD73 inhibition

Nc1nccc2c1ncn2[C@@H]1O[C@H](COP(=O)(O)CP(=O)(O)O)[C@@H](O)[C@H]1O [2f, 3-Deazaadenosine-5′-O-[(phosphonomethyl)phosphonic acid]]
CD73 inhibitory activity (in words) ([1]; rat CD73): inactive

O=c1ccn([C@@H]2O[C@H](COP(=O)(O)CCP(=O)(O)O)[C@@H](O)[C@H]2O)c(=O)[nH]1 [4w, Uridine-5′-O-[(phosphonoethyl)phosphonic acid]]
CD73 inhibitory activity (in words) ([1]; rat CD73): complete loss of CD73 inhibition

O=c1[nH]/c(=N/OCc2ccc3ccccc3c2)ccn1[C@@H]1O[C@H](COP(=O)(O)CP(=O)(O)O)[C@@H](O)[C@H]1O [9e, N^4-[O-(Naphthalen-2-ylmethoxy)]-cytidine-5′-O-[(phosphonomethyl)phosphonic acid]]
fold more potent at human CD73 as compared to the rat enzyme [2]: 2 to 3 fold

Nc1ccnc2c1ncn2[C@@H]1O[C@H](COP(=O)(O)CP(=O)(O)O)[C@@H](O)[C@H]1O [2e, 1-Deazaadenosine-5′-O-[(phosphonomethyl)phosphonic acid]]
CD73 inhibitory activity (in words) ([1]; rat CD73): inactive

CCn1c(=O)ccn([C@@H]2O[C@H](COP(=O)(O)CP(=O)(O)O)[C@@H](O)[C@H]2O)c1=O [4c, 3-Ethyluridine-5′-O-[(phosphonomethyl)phosphonic acid]]
CD73 inhibitory activity (in words) ([1]; rat CD73): inactive

O=C(Nc1ccn([C@@H]2O[C@H](COP(=O)(O)CP(=O)(O)O)[C@@H](O)[C@H]2O)c(=O)n1)c1ccccc1 [7f, 4-Benzoylcytidine-5′-O-[(phosphonomethyl)phosphonic acid]]
fold more potent at human CD73 as compared to the rat enzyme [2]: 2 to 3 fold
potency at P2Y6 receptor (in words) (human P2Y6 receptor): potencies in the micromolar range
potency at P2Y14 receptor (in words) (human P2Y14 receptor): potencies in the micromolar range
stability in aqueous solution [3]: gradual decomposition when left at room temperature over several weeks in aqueous solution to UOPCP (4a) and COPCP (7a); also recorded: decomposition of compound 7f to UOPCP

O=c1ccn([C@@H]2O[C@H](COP(=O)(O)CP(=O)(O)O)[C@@H](O)[C@H]2O)c(=O)[nH]1 [4a, Uridine-5′-O-[(phosphonomethyl)phosphonic acid]]
fold less active than AOPCP [1]: 11 fold
